Tests used:
Rattus norvegicus = species on record: Rattus norvegicus; test: Inhibition of L-dopa-induced abnormal involuntary movement in rat; type: functional
[1] = Oral bioavailability in rat; type: ADME, organism-based; conditions: in vivo
[2] = Drug uptake in po dosed rat brain after 0.5 hrs by LC-MS/MS analysis; type: ADME, organism-based; conditions: read-out: Drug uptake
[3] = Drug uptake in po dosed rat plasma after 1 hrs by LC-MS/MS analysis; type: ADME, organism-based
[4] = Drug uptake in po dosed rat brain after 4 hrs by LC-MS/MS analysis; type: ADME, organism-based; conditions: read-out: Drug uptake
[5] = Half life in po dosed rat; type: ADME, organism-based; conditions: in vivo
[6] = biological target: T1, Neuronal acetylcholine receptor; alpha4/beta2 (Homo sapiens, UniProt P17787+P43681); test: Agonist activity at human alpha4beta2 nAChR low sensitivity isoform transfected in SH-EP1 cells assessed as calcium flux by FLIPR assay; type: cell-based
T1 sequence (P17787 whole entry, canonical isoform): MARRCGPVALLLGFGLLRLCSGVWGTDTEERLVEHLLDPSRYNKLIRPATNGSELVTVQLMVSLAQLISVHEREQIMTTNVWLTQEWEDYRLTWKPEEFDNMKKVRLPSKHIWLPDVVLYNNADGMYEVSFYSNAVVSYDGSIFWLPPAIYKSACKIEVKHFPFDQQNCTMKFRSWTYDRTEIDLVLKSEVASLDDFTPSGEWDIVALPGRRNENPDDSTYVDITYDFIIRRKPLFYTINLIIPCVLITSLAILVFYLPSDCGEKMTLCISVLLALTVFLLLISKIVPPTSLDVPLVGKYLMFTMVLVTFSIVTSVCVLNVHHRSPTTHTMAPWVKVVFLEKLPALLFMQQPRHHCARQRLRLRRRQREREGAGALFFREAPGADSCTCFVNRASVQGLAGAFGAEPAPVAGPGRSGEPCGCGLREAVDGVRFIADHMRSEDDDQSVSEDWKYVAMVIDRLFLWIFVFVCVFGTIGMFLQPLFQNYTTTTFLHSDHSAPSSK
T1 sequence (P43681 whole entry, canonical isoform): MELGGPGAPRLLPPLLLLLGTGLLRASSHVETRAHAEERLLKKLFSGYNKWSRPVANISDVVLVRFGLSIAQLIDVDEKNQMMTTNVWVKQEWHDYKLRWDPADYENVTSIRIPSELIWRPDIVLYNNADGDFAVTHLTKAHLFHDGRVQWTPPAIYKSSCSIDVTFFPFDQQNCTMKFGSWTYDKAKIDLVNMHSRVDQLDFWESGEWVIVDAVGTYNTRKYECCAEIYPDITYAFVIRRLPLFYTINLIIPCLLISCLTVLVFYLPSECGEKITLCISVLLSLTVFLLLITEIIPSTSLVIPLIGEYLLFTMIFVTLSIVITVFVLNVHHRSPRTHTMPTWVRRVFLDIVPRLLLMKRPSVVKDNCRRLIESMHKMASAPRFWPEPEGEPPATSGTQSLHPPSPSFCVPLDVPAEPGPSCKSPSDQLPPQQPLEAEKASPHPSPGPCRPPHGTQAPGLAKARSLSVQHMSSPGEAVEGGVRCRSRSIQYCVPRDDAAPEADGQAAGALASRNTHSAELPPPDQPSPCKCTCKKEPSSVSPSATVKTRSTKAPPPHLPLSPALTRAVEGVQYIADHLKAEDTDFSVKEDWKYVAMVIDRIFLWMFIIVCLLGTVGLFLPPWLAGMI

[7] = biological target: T1, Neuronal acetylcholine receptor; alpha4/beta2; test: Agonist activity at human alpha4beta2 nAChR transfected in SH-EP1 cells assessed as calcium flux by FLIPR assay; type: cell-based
[8] = Tmax in po dosed rat; type: ADME, organism-based; conditions: in vivo
[9] = Ratio of drug level in po dosed rat brain to plasma after 1 hrs by LC-MS/MS analysis; type: ADME, organism-based; conditions: read-out: BPR
[10] = Drug uptake in po dosed rat plasma after 0.5 hrs by LC-MS/MS analysis; type: ADME, organism-based
[11] = Ratio of drug level in po dosed rat brain to plasma after 0.5 hrs by LC-MS/MS analysis; type: ADME, organism-based; conditions: read-out: BPR
[12] = biological target: T2, Neuronal acetylcholine receptor; alpha3/alpha6/beta2/beta3 (Homo sapiens, UniProt P17787+P32297+Q05901+Q15825); test: Agonist activity at human alpha6/alpha3beta2beta3 nAChR transfected in CHO cells assessed as calcium flux by FLIPR assay; type: cell-based
T2 sequence (P17787 whole entry): as the sequence (P17787 whole entry, canonical isoform) above
T2 sequence (P32297 whole entry): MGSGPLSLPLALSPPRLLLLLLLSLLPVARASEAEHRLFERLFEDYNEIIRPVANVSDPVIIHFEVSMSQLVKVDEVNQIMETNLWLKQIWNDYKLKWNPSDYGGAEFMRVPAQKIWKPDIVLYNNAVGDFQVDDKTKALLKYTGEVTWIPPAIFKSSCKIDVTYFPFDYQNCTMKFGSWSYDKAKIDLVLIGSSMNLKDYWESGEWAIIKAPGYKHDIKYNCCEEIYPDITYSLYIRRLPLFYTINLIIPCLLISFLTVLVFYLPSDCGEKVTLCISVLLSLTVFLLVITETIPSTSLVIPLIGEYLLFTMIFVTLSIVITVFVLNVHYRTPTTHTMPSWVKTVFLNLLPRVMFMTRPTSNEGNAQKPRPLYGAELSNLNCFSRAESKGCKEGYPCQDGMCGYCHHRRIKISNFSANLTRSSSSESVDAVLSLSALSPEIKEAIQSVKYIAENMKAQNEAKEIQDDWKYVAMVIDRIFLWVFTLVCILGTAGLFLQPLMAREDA
T2 sequence (Q15825 whole entry): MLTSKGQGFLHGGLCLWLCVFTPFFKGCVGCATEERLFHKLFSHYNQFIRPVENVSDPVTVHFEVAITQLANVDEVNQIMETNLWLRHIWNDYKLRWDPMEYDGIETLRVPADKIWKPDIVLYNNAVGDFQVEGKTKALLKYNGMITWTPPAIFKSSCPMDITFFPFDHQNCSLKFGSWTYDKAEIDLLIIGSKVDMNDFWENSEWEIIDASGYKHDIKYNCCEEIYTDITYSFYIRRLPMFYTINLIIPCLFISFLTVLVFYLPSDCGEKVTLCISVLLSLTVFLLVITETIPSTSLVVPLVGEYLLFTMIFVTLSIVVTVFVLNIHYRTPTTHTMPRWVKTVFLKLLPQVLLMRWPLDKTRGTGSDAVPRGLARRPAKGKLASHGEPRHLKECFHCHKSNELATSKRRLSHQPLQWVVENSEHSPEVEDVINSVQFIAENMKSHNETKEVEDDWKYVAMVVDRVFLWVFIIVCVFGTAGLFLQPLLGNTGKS
T2 sequence (Q05901 whole entry): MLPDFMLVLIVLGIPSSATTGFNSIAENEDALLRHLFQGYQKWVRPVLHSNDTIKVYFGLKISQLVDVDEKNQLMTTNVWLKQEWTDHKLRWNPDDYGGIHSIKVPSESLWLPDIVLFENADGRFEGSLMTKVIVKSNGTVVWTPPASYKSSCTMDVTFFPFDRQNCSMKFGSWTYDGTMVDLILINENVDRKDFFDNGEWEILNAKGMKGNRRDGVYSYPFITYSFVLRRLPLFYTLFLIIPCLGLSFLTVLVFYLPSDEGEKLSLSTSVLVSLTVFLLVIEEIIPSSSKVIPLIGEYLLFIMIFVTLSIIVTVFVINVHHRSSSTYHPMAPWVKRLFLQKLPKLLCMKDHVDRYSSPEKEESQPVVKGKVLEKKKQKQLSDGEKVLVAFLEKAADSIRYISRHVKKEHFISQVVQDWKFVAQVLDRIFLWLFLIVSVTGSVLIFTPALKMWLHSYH

[13] = Drug uptake in po dosed rat brain after 1 hrs by LC-MS/MS analysis; type: ADME, organism-based; conditions: read-out: Drug uptake
[14] = biological target: T1, Neuronal acetylcholine receptor; alpha4/beta2; test: Agonist activity at human alpha4beta2 nAChR high sensitivity isoform transfected in SH-EP1 cells assessed as calcium flux by FLIPR assay relative to control; type: cell-based
[15] = Ratio of drug level in po dosed rat brain to plasma after 4 hrs by LC-MS/MS analysis; type: ADME, organism-based; conditions: read-out: BPR
[16] = biological target: Neuronal acetylcholine receptor; alpha3/alpha6/beta2/beta3 (Homo sapiens) (UniProt P17787+P32297+Q15825+Q05901); test: Agonist activity at human alpha6/alpha3beta2beta3 nAChR transfected in CHO cells assessed as calcium flux by FLIPR assay relative to control; type: cell-based
[17] = Cmax in po dosed rat; type: ADME, organism-based; design: route oral; conditions: in vivo
[18] = Drug uptake in po dosed rat plasma after 4 hrs by LC-MS/MS analysis; type: ADME, organism-based
[19] = biological target: T1, Neuronal acetylcholine receptor; alpha4/beta2; test: Agonist activity at human alpha4beta2 nAChR low sensitivity isoform transfected in SH-EP1 cells assessed as calcium flux by FLIPR assay relative to control; type: cell-based
[20] = biological target: T2, Neuronal acetylcholine receptor; alpha3/alpha6/beta2/beta3; test: Displacement of [3H]epibatidine from human alpha6/alpha3beta2beta3 nAChR transfected in CHO cells by liquid scintillation counting; type: cell-based
[21] = biological target: T1, Neuronal acetylcholine receptor; alpha4/beta2; test: Displacement of [3H] nicotine from human alpha4beta2 nAChR transfected in SH-EP1 cells by liquid scintillation counting; type: cell-based

With `O=C(C1CC1)N1CC2CC(C1)N2` the “inhibition (INH)” value (Rattus norvegicus) was 24%, the bioavailability [1] was 82.6% and the concentration at 0.5 h [2] was 39.5 ng/g. The concentration at 1 h [3] was 174 ng/mL, the concentration at 4 h [4] was 20.2 ng/g and the half-life [5] was 1.58 h. For the same molecule, the EC50 [6] was 850 nM, the EC50 [7] was 140 nM and the Tmax [8] was 1 h. It also gave a Kp at 1 h [9] of 0.31, a concentration at 0.5 h [10] of 123 ng/mL and a Kp at 0.5 h [11] of 0.22. For the same molecule, the EC50 [12] was 80 nM, the concentration at 1 h [13] was 53.7 ng/g and the Emax [14] was 110%. For the same molecule, the Kp at 4 h [15] was 0.32, the Emax [16] was 100% and the Cmax [17] was 200 ng/mL. For the same molecule, the concentration at 4 h [18] was 62.2 ng/mL, the Emax [19] was 110% and the Ki [20] was 21 nM.

`O=C(C1CC=CC1)N1CC2CC(C1)N2` gave an EC50 [6] of 17000 nM, an EC50 [7] of 6600 nM and a Ki [21] of 51 nM. The EC50 [12] was 1900 nM, the Emax [14] was 95% and the Emax [16] was 99%. For the same molecule, the Emax [19] was 93% and the Ki [20] was 1100 nM.

In the case of `O=C(C1CC1)N1CC2CC1CN2` (configuration not stated), the Ki [21] is reported as 2800 nM and the Ki [20] is reported as 10000 nM.

Work on `CC(C)C(=O)N1CC2CC(C1)N2` yielded an EC50 [6] of 20000 nM, an EC50 [7] of 19000 nM and a Ki [21] of 130 nM. For the same molecule, the EC50 [12] was 16000 nM, the Emax [14] was 71% and the Emax [16] was 45%. It also gave an Emax [19] of 86% and a Ki [20] of 580 nM.

Work on `O=C([C@@H]1C[C@H]1F)N1CC2CC(C1)N2` yielded an EC50 [6] of 870 nM, an EC50 [7] of 120 nM and an EC50 [12] of 53 nM. The Emax [14] was 110%, the Emax [16] was 130% and the Emax [19] was 110%. The Ki [20] was 43 nM.

Molecule `O=C([C@H]1C[C@@H]1F)N1CC2CC(C1)N2` has an EC50 [6] of 2800 nM, an EC50 [7] of 850 nM and a Ki [21] of 5.4 nM. The EC50 [12] was 620 nM, the Emax [14] was 100% and the Emax [16] was 85%. It also gave an Emax [19] of 100% and a Ki [20] of 490 nM.

In the case of `O=C(C1CC1(F)F)N1CC2CC(C1)N2` (configuration not stated), the EC50 [6] is reported as 2300 nM, the EC50 [7] is reported as 1000 nM and the Ki [21] is reported as 5.9 nM. The EC50 [12] was 100 nM, the Emax [14] was 100% and the Emax [16] was 110%. For the same molecule, the Emax [19] was 94% and the Ki [20] was 75 nM.

`O=C([C@@H]1C[C@@H]1F)N1CC2CC(C1)N2` showed an EC50 [6] of 370 nM, an EC50 [7] of 120 nM and a Ki [21] of 1.7 nM. For the same molecule, the EC50 [12] was 88 nM, the Emax [14] was 110% and the Emax [16] was 120%. It also gave an Emax [19] of 120% and a Ki [20] of 55 nM.

In the case of `O=C(C1CCCC1)N1CC2CC(C1)N2`, the EC50 [6] is reported as 29000 nM, the EC50 [7] is reported as 11000 nM and the Ki [21] is reported as 160 nM. For the same molecule, the EC50 [12] was 1600 nM, the Emax [14] was 68% and the Emax [16] was 62%. It also gave an Emax [19] of 48% and a Ki [20] of 2900 nM.

In the case of `O=C(CC1C=CCC1)N1CC2CC(C1)N2` (configuration not stated), the EC50 [6] is reported as 37000 nM, the EC50 [7] is reported as 14000 nM and the Ki [21] is reported as 53 nM. The EC50 [12] was 21000 nM, the Emax [14] was 94% and the Emax [16] was 47%. The Emax [19] was 89% and the Ki [20] was 2500 nM.

`O=C([C@H]1C[C@H]1F)N1CC2CC(C1)N2` showed an EC50 [6] of 1500 nM, an EC50 [7] of 210 nM and an EC50 [12] of 62 nM. The Emax [14] was 110%, the Emax [16] was 130% and the Emax [19] was 110%. For the same molecule, the Ki [20] was 27 nM.

`O=C(C1CCC1)N1CC2CC(C1)N2` gave an EC50 [6] of 11000 nM, an EC50 [7] of 2900 nM and a Ki [21] of 16 nM. The EC50 [12] was 370 nM, the Emax [14] was 99% and the Emax [16] was 80%. For the same molecule, the Emax [19] was 100% and the Ki [20] was 240 nM.

For `CC(=O)N1CC2CC(C1)N2`, the EC50 [6] was 9700 nM, the EC50 [7] was 5100 nM and the Ki [21] was 150 nM. The EC50 [12] was 750 nM, the Emax [14] was 95% and the Emax [16] was 100%. The Emax [19] was 94% and the Ki [20] was 610 nM.

`C[C@@H]1C[C@H]1C(=O)N1CC2CC(C1)N2` showed an EC50 [6] of 2900 nM, an EC50 [7] of 190 nM and an EC50 [12] of 51 nM. The Emax [14] was 110%, the Emax [16] was 110% and the Emax [19] was 110%. The Ki [20] was 14 nM.

In the case of `O=C(C1CC1)N1CCNCC1`, the Ki [21] is reported as 6000 nM and the Ki [20] is reported as 26000 nM.

Work on `C[C@H]1C[C@@H]1C(=O)N1CC2CC(C1)N2` yielded an EC50 [6] of 14000 nM, an EC50 [7] of 9100 nM and a Ki [21] of 17 nM. For the same molecule, the EC50 [12] was 3800 nM, the Emax [14] was 85% and the Emax [16] was 64%. The Emax [19] was 67% and the Ki [20] was 310 nM.

`O=C(C1CC1)N1CC2CCC(C1)N2` gave a Ki [21] of 320 nM and a Ki [20] of 7200 nM.

For `C[C@@H]1C[C@@H]1C(=O)N1CC2CC(C1)N2`, the EC50 [6] was 3800 nM, the EC50 [7] was 2100 nM and the EC50 [12] was 920 nM. It also gave an Emax [14] of 97%, an Emax [16] of 87% and an Emax [19] of 88%. For the same molecule, the Ki [20] was 92 nM.

`C[C@H]1C[C@H]1C(=O)N1CC2CC(C1)N2` showed an EC50 [6] of 5800 nM, an EC50 [7] of 2200 nM and a Ki [21] of 7 nM. It also gave an EC50 [12] of 2000 nM, an Emax [14] of 93% and an Emax [16] of 60%. The Emax [19] was 87% and the Ki [20] was 170 nM.

With `CCCC(=O)N1CC2CC(C1)N2` the EC50 [6] was 850 nM, the EC50 [7] was 580 nM and the Ki [21] was 14 nM. The EC50 [12] was 300 nM, the Emax [14] was 110% and the Emax [16] was 92%. It also gave an Emax [19] of 120% and a Ki [20] of 350 nM.

With `CC1(C)CC1C(=O)N1CC2CC(C1)N2` (configuration not stated) the EC50 [6] was 5700 nM, the EC50 [7] was 2200 nM and the Ki [21] was 3.9 nM. It also gave an EC50 [12] of 540 nM, an Emax [14] of 92% and an Emax [16] of 73%. For the same molecule, the Emax [19] was 96% and the Ki [20] was 250 nM.

`CCC(=O)N1CC2CC(C1)N2` gave an EC50 [6] of 5900 nM, an EC50 [7] of 490 nM and a Ki [21] of 6 nM. For the same molecule, the EC50 [12] was 180 nM, the Emax [14] was 110% and the Emax [16] was 120%. It also gave an Emax [19] of 98% and a Ki [20] of 190 nM.

Source: ChEMBL document CHEMBL3352319, “Identification and pharmacological characterization of 3,6-diazabicyclo[3.1.1]heptane-3-carboxamides as novel ligands for the α4β2 and α6/α3β2β3 nicotinic acetylcholine receptors (nAChRs)” (Eur J Med Chem, 2014)
